Legend:
VEGF = settings: reported; cited from earlier work
COX-2 = COX-2 expression in RE-149 DHD cells; type: cell-based, rat; settings: RE-149 DHD cell lines
Source text: (§1) Several BRB extracts and anthocyanins have been administered in JB6 CI 41 mouse epidermal cell lines and RE-149 DHD rat epithelium cancer cell lines, and such model systems are predictive of in vivo biological activity. As further discussed below, the BRB methanol fraction inhibits benzo(a)pyrene-7,8-diol-9,10-epoxide (B(a)PDE)-induced transactivation of transcription factor AP-1 and nuclear factor κB (NFκB, NFKB) activity in JB6 CI 41 cell lines; BRB ethanol extracts inhibited cell proliferation in RE-149 DHD cell lines; and the anthocyanins, cyanidin-3-O-glucoside and cyanidin-3-O-rutinoside derived from BRB ethanol extracts, suppressed the expression of COX-2 and iNOS in RE-149 DHD cell lines. A further embodiment is that even the unpurified components of the BRB ethanol extracts are believed to be safe for human consumption, being derived from a consumable foodstuff using consumable extraction solvents.

iNOS [1] = test: iNOS expression in RE-149 DHD cells; type: cell-based, rat; settings: RE-149 DHD cell lines
Source text: as §1

iNOS [2] = target: T1, iNOS (Homo sapiens, UniProt P35228); settings: cytokine-induced colorectal adenocarcinoma DLD cells; cited from earlier work
T1 construct: its specificity for iNOS was established in cytokine-induced colorectal adenocarcinoma DLD cells; endogenous in cells; host or cells: cytokine-induced colorectal adenocarcinoma DLD cells
T1 sequence (P35228 whole entry): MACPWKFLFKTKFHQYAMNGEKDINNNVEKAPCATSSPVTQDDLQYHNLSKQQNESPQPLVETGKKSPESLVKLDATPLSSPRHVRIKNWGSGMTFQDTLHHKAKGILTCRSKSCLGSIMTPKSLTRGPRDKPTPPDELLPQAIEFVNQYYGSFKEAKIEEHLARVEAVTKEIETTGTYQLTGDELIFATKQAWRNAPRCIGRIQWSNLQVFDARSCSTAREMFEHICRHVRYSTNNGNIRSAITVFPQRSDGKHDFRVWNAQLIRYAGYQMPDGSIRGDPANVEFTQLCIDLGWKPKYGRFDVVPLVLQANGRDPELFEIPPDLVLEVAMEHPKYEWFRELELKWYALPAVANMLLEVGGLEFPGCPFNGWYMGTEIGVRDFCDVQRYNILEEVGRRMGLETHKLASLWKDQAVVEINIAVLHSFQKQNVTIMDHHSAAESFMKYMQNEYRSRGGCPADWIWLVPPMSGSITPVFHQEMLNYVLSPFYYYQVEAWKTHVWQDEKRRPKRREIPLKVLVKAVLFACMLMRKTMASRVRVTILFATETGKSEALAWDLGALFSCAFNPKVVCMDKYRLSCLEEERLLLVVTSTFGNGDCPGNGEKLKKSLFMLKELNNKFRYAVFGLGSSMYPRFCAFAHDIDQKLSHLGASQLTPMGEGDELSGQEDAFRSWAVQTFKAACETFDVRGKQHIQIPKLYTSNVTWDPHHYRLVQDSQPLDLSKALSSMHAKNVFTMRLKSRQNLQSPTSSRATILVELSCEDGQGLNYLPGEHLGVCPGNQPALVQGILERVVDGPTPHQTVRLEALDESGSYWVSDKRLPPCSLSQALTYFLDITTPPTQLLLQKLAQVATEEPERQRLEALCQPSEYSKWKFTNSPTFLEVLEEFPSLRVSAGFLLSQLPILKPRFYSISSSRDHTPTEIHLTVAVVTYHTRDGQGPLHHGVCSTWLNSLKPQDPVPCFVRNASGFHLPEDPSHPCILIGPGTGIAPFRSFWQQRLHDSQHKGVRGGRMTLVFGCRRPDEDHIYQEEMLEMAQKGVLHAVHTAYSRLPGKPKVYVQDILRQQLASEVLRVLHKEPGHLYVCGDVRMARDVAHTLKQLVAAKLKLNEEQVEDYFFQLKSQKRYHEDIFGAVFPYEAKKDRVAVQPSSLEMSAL

[3] = system: azoxymethane-induced aberrant crypt foci; settings: rat colon, Rao et al.; cited from earlier work
NMBA-induced tumors = settings: Chen et al. 2004; cited from earlier work
[4] = system: normal, premalignant and malignant oral epithelial cell lines; test: Growth and cytotoxicity in oral epithelial cell lines; type: cell-based, human
Procedure: In particular, using a panel of normal, premalignant and malignant oral epithelial cell lines, the cellular (growth inhibiting and cytotoxic) effects of phytochemicals found in black raspberry fractions was determined (i.e., F001, F003, DM, and ME/Et, see FIGS. 2A and 2B).

Structure (SMILES) | angiogenesis by inhibiting VEGF expression (VEGF) | expression of COX-2 (COX-2) | expression of iNOS (iNOS [1]) | also measured
Cc1nc(C2CCCCC2)c(-c2ccc(S(N)(=O)=O)c(F)c2)o1 [JTE-522] | effectively block angiogenesis |  |  | 
OC[C@H]1O[C@@H](Oc2cc3c(O)cc(O)cc3[o+]c2-c2ccc(O)c(O)c2)[C@H](O)[C@@H](O)[C@@H]1O [cyanidin-3-O-glucoside] |  | suppressed | suppressed | 
N=C(N)SCCc1ccc(CCSC(=N)N)cc1 [PBIT, S,S-1,4-phenylene-bis(1,2-ethanediyl)bis-isothiourea] |  |  |  | selectivity for iNOS over endothelial and neuronal NOS (iNOS [2]): selectively inhibit iNOS; aberrant crypt foci formation, crypt multiplicity, and iNOS activity [3]: suppressed; NMBA-induced tumors in the rat esophagus (NMBA-induced tumors): inhibit
C[C@@H]1O[C@@H](OC[C@H]2O[C@@H](Oc3cc4c(O)cc(O)cc4[o+]c3-c3ccc(O)c(O)c3)[C@H](O)[C@@H](O)[C@@H]2O)[C@H](O)[C@H](O)[C@H]1O [cyanidin-3-O-rutinoside] |  | suppressed | suppressed | 
CS(=O)(=O)Nc1ccc([N+](=O)[O-])cc1OC1CCCCC1 [NS-398] | effectively block angiogenesis |  |  | 
O=c1oc2c(O)c(O)cc3c(=O)oc4c(O)c(O)cc1c4c23 [Ellagic acid] |  |  |  | growth of oral cell lines [4]: potent, non-selective, inhibitor
